Results on 3 molecules are retold here after US20090232796A1, “METHOD OF TREATING CANCER BY ADMINISTERING AN IMMUNOMODULATORY COMPOUND IN COMBINATION WITH A CD40 ANTIBODY OR CD40 LIGAND” (priority 2008, published 2009).

For assay [1], the system named is B-CLL cells. In words: CD40 expression in cultured B-CLL cells (anti-CD40 APC antibody mean intensity). Type of assay: cell-based, human. To be noted: for mean intensity of anti-CD40 APC antibody: CD5+ CD19+ CLL blasts from a newly diagnosed patient, 4 days in culture (FIG. 2).
The subject of assay [2] is B-CLL cells. In words: Response of B-CLL cells to CD40L-transfected fibroblasts after compound pre-treatment. Type of assay: cell-based, human. To be noted: for response of B-CLL cells to CD40L treatment (percentage of viable cells per ml): relapsed patient at baseline, pre-treated 48 hours, then coculture with CD40L-transfected or control fibroblasts 48 hours (FIG. 5). From the text: (§1) L929 cells are derived from an immortalized mouse fibroblast cell line, and are routinely used in in-vitro assays. The L929 cells used herein were obtained from the American Type Culture Collection (ATCC). Raji cells were also obtained from ATCC. Namalwa cells were obtained from the German Resource Centre for Biological Materials DSMZ. B-CLL cells were obtained from the peripheral blood of patients enrolled in a clinical trial.
(§2) Namalwa, Raji, CD40L-transfected fibroblasts and L929 fibroblasts were cultured in RPMI medium (Gibco-Invitrogen) supplemented with 10% FBS. B-CLL cells were cultured in Iscove's medium (Gibco-Invitrogen) plus 15% FBS. Namalwa, Raji and B-CLL cells were cultured with compounds from 2 to 4 days. Fibroblasts were maintained in culture in monolayers. The day before the co-culture, the fibroblasts were treated with mitomycin C to stop proliferation and were then replated. Suspension cells were then added to the fibroblasts and the culture was incubated for 2 to 4 days.
(§3) Flow cytometry was then used to determine cell numbers and the percentage of apoptotic cells using the FACSArray system (BD Biosciences). The cells were stained with 7-Amino-Actinomycin D (7-AAD) (BD Pharmingen) for 10 minutes at room temperature prior to flow cytometry analysis in order to identify non-viable cells.
Pre-treatment with immunomodulatory compounds also augmented the sensitivity of Namalwa cells and CLL cells to CD40 ligation by CD40L. B-CLL cells taken from a relapsed patient at baseline were pre-treated with either 1,3-dioxo-2-(2,6-dioxopiperidin-3-yl)-4-aminoisoindoline or 1-oxo-2-(2,6-dioxopiperidin-3-yl)-4-aminoisoindoline for 48 hours. The cells were then cocultured with either CD40L-transfected fibroblasts or control fibroblasts for another 48 hours. The percentage of viable cells per ml was then measured (FIG. 5). Cells from another patient were pretreated with 1-oxo-2-(2,6-dioxopiperidin-3-yl)-4-aminoisoindoline for 24 hours and then cocultured with either CD40L-transfected fibroblasts or control fibroblasts for an additional 48 hours.

A further assay has as its system Namalwa cells. The assay is described as follows: Proliferation of Namalwa cells alone, with control fibroblasts or with CD40L-expressing fibroblasts. The format is cell-based. Conditions: for sensitivity of Namalwa cells to CD40 ligation by CD40L: pre-treatment with compound, CD40L transfected fibroblasts (FIG. 4).
From the text: as §1, §2, §3

The next assay relates to normal primary B cells. The assay is described as follows: Effect on normal primary B cells (p21 expression, viable cells). Type of assay: cell-based. To be noted: for viable normal B cells: normal primary B cells in culture; for level of p21 expression: normal primary B cells, after 24 hours and 72 hours of culture. As to the method:
as §3
Total RNA was isolated from Namalwa and B-CLL cells using RNAeasy (Qiagen). Gene expression analysis was performed using Affymetrix human U133A gene chips. Double-stranded cDNA was synthesized using […] of total RNA. Biotin-labeled cRNA was synthesized using a MessageAmp aRNA kit (Ambion). […] of cRNA was fragmented and hybridized to each array. The above procedures were performed twice for each RNA sample to obtain replicate biotin-labeled probes.
Cells cultured in the presence or absence of 1,3-dioxo-2-(2,6-dioxopiperidin-3-yl)-4-aminoisoindoline or 1-oxo-2-(2,6-dioxopiperidin-3-yl)-4-aminoisoindoline were characterized using flow cytometry and gene array analysis.

For another assay, the system named is Raji cells. In words: CD40 expression on Raji cells by flow cytometry. The format is cell-based. Conditions: 10 μM, 48 hours of incubation, vs DMSO control (FIG. 1).
Another assay deals with CD19^+CD5^+ cells. The assay is described as follows: CD40 on CD19+CD5+ cells of patients undergoing therapy, flow cytometry. Type of assay: in vivo, human.

Consider `Nc1cccc2c1CN(C1CCC(=O)NC1=O)C2=O` (stereo not drawn) [1-oxo-2-(2,6-dioxopiperidin-3-yl)-4-aminoisoindoline], for which, in the assay on B-CLL cells [1], the “mean intensity of anti-CD40 APC antibody” value is reported as “approximately doubled”. Also, in the assay on B-CLL cells [2] (newly diagnosed patient, pre-treated 0.1, 1.0 or 10 μM 24 hours, then CD40L-transfected or control fibroblasts 48 h (FIG. 6)), the “response of B-CLL cells to CD40L treatment (total cells/ml)” value is reported as “increases the response of B-CLL cells to CD40L treatment”. Besides, the “response of B-CLL cells to CD40L treatment (percentage of viable cells per ml)” value in the assay with B-CLL cells [2] is “increases the response of B-CLL cells to CD40L treatment”. Also, in the assay on Namalwa cells, the “sensitivity of Namalwa cells to CD40 ligation by CD40L” value is listed as “increased the sensitivity of Namalwa cells to CD40 ligation by CD40L”. Also, the “viable normal B cells” value with normal primary B cells is given as “dose-dependent increase in viable normal B cells”. In addition, the “level of p21 expression” value in the assay on normal primary B cells was “did not increase the level of p21 expression”. Besides, the “percentage of CD40+ cells” value in the assay with Raji cells is “increase the number of CD40^+ Raji cells”. Also, the “CD40+ cells among CD19+CD5+ cells” value with CD19^+CD5^+ cells (patient of FIG. 7, after 8 days of therapy, baseline 6.4%) worked out at 57.4%; in the assay on CD19^+CD5^+ cells (patient of FIG. 8, after 8 days of therapy, baseline 12.5%) it was 36.7%; in the assay with CD19^+CD5^+ cells (patient of FIG. 9, after 28 days of therapy, baseline 2.4%), 13.9%. Also, the “CD40 in B-CLL cells of patients” value in the assay with CD19^+CD5^+ cells (patients undergoing therapy, summary statement) is “upregulation of CD40 in B-CLL cells”.
On to `Nc1cccc2c1C(=O)N(C1CCC(=O)NC1=O)C2=O` (stereo not drawn) [1,3-dioxo-2-(2,6-dioxopiperidin-3-yl)-4-aminoisoindoline], for which the “mean intensity of anti-CD40 APC antibody” value with B-CLL cells [1] is given as “approximately doubled”. Also, in the assay on B-CLL cells [1] (newly diagnosed patient, 0.1, 1.0 or 10 μM, 24 hours, vs DMSO (FIG. 3)), the “mean intensity of anti-CD40 APC antibody in CD5+CD19+ CLL blasts” value is recorded as “augments the expression of CD40 in a dose responsive manner”. Besides, the “response of B-CLL cells to CD40L treatment (percentage of viable cells per ml)” value with B-CLL cells [2] is “increases the response of B-CLL cells to CD40L treatment”. Further, the “proliferation of Namalwa cells” value in the assay on Namalwa cells (0.01-10 μM, alone or in the presence of control fibroblasts (FIG. 4)) is listed as “inhibiting cell proliferation in a dose dependent manner”. Further, the “sensitivity of Namalwa cells to CD40 ligation by CD40L” value in the assay on Namalwa cells was “increased the sensitivity of Namalwa cells to CD40 ligation by CD40L”. In the assay with normal primary B cells, the “viable normal B cells” value is reported as “dose-dependent increase in viable normal B cells” and the “level of p21 expression” value is reported as “did not increase the level of p21 expression”. Also, in the assay on Raji cells, the “percentage of CD40+ cells” value was “increase the number of CD40^+ Raji cells”.

B1: CD40L: CD40 ligand, used in the form of CD40L transfected fibroblasts (protein, UniProt P29965 113-261, looked up)
CD40 ligand, soluble form: MQKGDQNPQIAAHVISEASSKTTSVLQWAEKGYYTMSNNLVTLENGKQLTVKRQGLYYIYAQVTFCSNREASSQAPFIASLCLKSPGRFERILLRAANTHSSAKPCGQQSIHLGGVFELQPGASVFVNVTDPSQVSHGTGFTSFGLLKL
modifications: expressed on transfected fibroblasts
Turning to B1, the “cell growth / cell apoptosis” value with B-CLL cells [2] (B-CLL cells treated with CD40L transfected fibroblasts) and with Namalwa cells (Namalwa cells treated with CD40L transfected fibroblasts) was “inhibit cell growth and/or augment cell apoptosis” each time.
